Mutagenic call data for 6 compounds are collected here from PubChem BioAssay AID1259407 (Chemical Carcinogenesis Research Information System (CCRIS), 2018).

For this series, the system named is CCRIS mutagenicity, Ames/micronucleus/aberration tests. The experiment in a line: CCRIS mutagenicity studies.
The mark [1] stands for this setting: Test System: AMES SALMONELLA TYPHIMURIUM, Strain/Indicator: TA98, Metabolic Activation: NONE, Method: PREINCUBATION
Setting [2] is: Test System: AMES SALMONELLA TYPHIMURIUM, Strain/Indicator: TA98, Metabolic Activation: NONE, Method: STANDARD PLATE.
Where [3] appears, read: Test System: AMES SALMONELLA TYPHIMURIUM, Strain/Indicator: TA98, Metabolic Activation: RAT, LIVER, S-9, AROCLOR 1254, Method: STANDARD PLATE.
Where [4] appears, read: Test System: AMES SALMONELLA TYPHIMURIUM, Strain/Indicator: TA100, Metabolic Activation: NONE, Method: PREINCUBATION
The mark [5] stands for this setting: Test System: AMES SALMONELLA TYPHIMURIUM, Strain/Indicator: TA100, Metabolic Activation: NONE, Method: STANDARD PLATE.
The mark [6] stands for this setting: Test System: AMES SALMONELLA TYPHIMURIUM, Strain/Indicator: TA100, Metabolic Activation: RAT, LIVER, S-9, AROCLOR 1254, Method: STANDARD PLATE.
Setting [7] is: Test System: AMES SALMONELLA TYPHIMURIUM, Strain/Indicator: TA1535, Metabolic Activation: NONE, Method: PREINCUBATION
Setting [8] is: Test System: AMES SALMONELLA TYPHIMURIUM, Strain/Indicator: TA1537, Metabolic Activation: NONE, Method: PREINCUBATION

Each structure is given as a SMILES string. Calls of active or inactive are those of the source. No rule for the calls is given here.

`[O]=[Zr]`: the mutagenic call runs as follows: (Test System: AMES SALMONELLA TYPHIMURIUM, Strain/Indicator: TA98, Metabolic Activation: HAMSTER, LIVER, S-9, AROCLOR 1254 (10%), Method: PREINCUBATION) “inactive; negative”; (Test System: AMES SALMONELLA TYPHIMURIUM, Strain/Indicator: TA98, Metabolic Activation: HAMSTER, LIVER, S-9, AROCLOR 1254, Method: STANDARD PLATE) “inactive; negative”; under setting [1], “inactive; negative”; under setting [2], “inactive; negative”; (Test System: AMES SALMONELLA TYPHIMURIUM, Strain/Indicator: TA98, Metabolic Activation: RAT, LIVER, S-9, AROCLOR 1254 (10%), Method: PREINCUBATION) “inactive; negative”; under setting [3], “inactive; negative”. Also, the mutagenic call is, setting by setting: (Test System: AMES SALMONELLA TYPHIMURIUM, Strain/Indicator: TA100, Metabolic Activation: HAMSTER, LIVER, S-9, AROCLOR 1254 (10%), Method: PREINCUBATION) “inactive; negative”; (Test System: AMES SALMONELLA TYPHIMURIUM, Strain/Indicator: TA100, Metabolic Activation: HAMSTER, LIVER, S-9, AROCLOR 1254, Method: STANDARD PLATE) “inactive; negative”; under setting [4], “inactive; negative”; under setting [5], “inactive; negative”; (Test System: AMES SALMONELLA TYPHIMURIUM, Strain/Indicator: TA100, Metabolic Activation: RAT, LIVER, S-9, AROCLOR 1254 (10%), Method: PREINCUBATION) “inactive; negative”; under setting [6], “inactive; negative”. For the same compound, the mutagenic call is, setting by setting: (Test System: AMES SALMONELLA TYPHIMURIUM, Strain/Indicator: TA1535, Metabolic Activation: HAMSTER, LIVER, S-9, AROCLOR 1254 (10%), Method: PREINCUBATION) “inactive; negative”; (Test System: AMES SALMONELLA TYPHIMURIUM, Strain/Indicator: TA1535, Metabolic Activation: HAMSTER, LIVER, S-9, AROCLOR 1254, Method: STANDARD PLATE) “inactive; negative”; under setting [7], “inactive; negative”; (Test System: AMES SALMONELLA TYPHIMURIUM, Strain/Indicator: TA1535, Metabolic Activation: NONE, Method: STANDARD PLATE) “inactive; negative”; (Test System: AMES SALMONELLA TYPHIMURIUM, Strain/Indicator: TA1535, Metabolic Activation: RAT, LIVER, S-9, AROCLOR 1254 (10%), Method: PREINCUBATION) “inactive; negative”; (Test System: AMES SALMONELLA TYPHIMURIUM, Strain/Indicator: TA1535, Metabolic Activation: RAT, LIVER, S-9, AROCLOR 1254, Method: STANDARD PLATE) “inactive; negative”. Moreover, the mutagenic call (Test System: AMES SALMONELLA TYPHIMURIUM, Strain/Indicator: TA1537, Metabolic Activation: HAMSTER, LIVER, S-9, AROCLOR 1254 (10%), Method: PREINCUBATION) is “inactive; negative”; the mutagenic call (Test System: AMES SALMONELLA TYPHIMURIUM, Strain/Indicator: TA1537, Metabolic Activation: HAMSTER, LIVER, S-9, AROCLOR 1254, Method: STANDARD PLATE) was “inactive; negative”; the mutagenic call under setting [8] was “inactive; negative”; the mutagenic call (Test System: AMES SALMONELLA TYPHIMURIUM, Strain/Indicator: TA1537, Metabolic Activation: NONE, Method: STANDARD PLATE) was “inactive; negative”; the mutagenic call (Test System: AMES SALMONELLA TYPHIMURIUM, Strain/Indicator: TA1537, Metabolic Activation: RAT, LIVER, S-9, AROCLOR 1254 (10%), Method: PREINCUBATION) is “inactive; negative”; the mutagenic call (Test System: AMES SALMONELLA TYPHIMURIUM, Strain/Indicator: TA1537, Metabolic Activation: RAT, LIVER, S-9, AROCLOR 1254, Method: STANDARD PLATE) is “inactive; negative”. Moreover, the mutagenic call was “inactive; negative” (Test System: AMES SALMONELLA TYPHIMURIUM, Strain/Indicator: TA1538, Metabolic Activation: HAMSTER, LIVER, S-9, AROCLOR 1254, Method: STANDARD PLATE); “inactive; negative” (Test System: AMES SALMONELLA TYPHIMURIUM, Strain/Indicator: TA1538, Metabolic Activation: NONE, Method: STANDARD PLATE); “inactive; negative” (Test System: AMES SALMONELLA TYPHIMURIUM, Strain/Indicator: TA1538, Metabolic Activation: RAT, LIVER, S-9, AROCLOR 1254, Method: STANDARD PLATE); “inactive; negative. reevaluation of results: negative” (Test System: MOUSE LYMPHOMA, Strain/Indicator: L5178Y (TK+/TK-), Metabolic Activation: NONE, Method: SUSPENSION/PLATE); “inactive; negative. reevaluation of results: negative” (Test System: MOUSE LYMPHOMA, Strain/Indicator: L5178Y (TK+/TK-), Metabolic Activation: RAT, LIVER, S-9, AROCLOR 1254, Method: SUSPENSION/PLATE).

With `CC(C)c1cccc(C(C)C)c1O`, under “End Point: IN VIVO CHROMOSOMAL ABERRATIONS, Test System: PERIPHERAL BLOOD LYMPHOCYTES, Species: HUMAN, Strain/Sex: MALE, FEMALE, Route: IV”, the mutagenic call is “inactive; negative”.

In the case of `COC(=O)c1oc(NOC(C)=O)c(-c2ccccc2)c1-c1ccccc1`, the mutagenic call by setting is: under setting [1], “inactive; negative”; (Test System: AMES SALMONELLA TYPHIMURIUM, Strain/Indicator: TA98, Metabolic Activation: RAT, LIVER, S-9, AROCLOR, Method: PREINCUBATION) “inactive; negative”; under setting [4], “inactive; negative”; (Test System: AMES SALMONELLA TYPHIMURIUM, Strain/Indicator: TA100, Metabolic Activation: RAT, LIVER, S-9, AROCLOR, Method: PREINCUBATION) “inactive; negative”.

In the case of `CCNc1nc(Cl)nc(NCC)n1`, the mutagenic call (Test System: AMES SALMONELLA TYPHIMURIUM, Strain/Indicator: TA97, Metabolic Activation: NONE, Method: STANDARD PLATE) was “inactive; negative”; the mutagenic call (Test System: AMES SALMONELLA TYPHIMURIUM, Strain/Indicator: TA97, Metabolic Activation: RAT, LIVER, S-9, AROCLOR 1254, Method: STANDARD PLATE) is “inactive; negative”; the mutagenic call under setting [2] was “inactive; negative”; the mutagenic call under setting [3] was “inactive; negative”; the mutagenic call under setting [5] was “inactive; negative”; the mutagenic call under setting [6] is “inactive; negative”. Besides, the mutagenic call reads like this: (Test System: AMES SALMONELLA TYPHIMURIUM, Strain/Indicator: TA102, Metabolic Activation: NONE, Method: STANDARD PLATE) “inactive; negative”; (Test System: AMES SALMONELLA TYPHIMURIUM, Strain/Indicator: TA102, Metabolic Activation: RAT, LIVER, S-9, AROCLOR 1254, Method: STANDARD PLATE) “inactive; negative”.

Regarding `O=[N+]([O-])c1cccc2cn[nH]c12`, the mutagenic call under setting [2] is “active; positive”.

For the compound `N#Cc1ccc([N+](=O)[O-])cc1`, the mutagenic call is, setting by setting: under setting [1], “inactive; negative”; (Test System: AMES SALMONELLA TYPHIMURIUM, Strain/Indicator: TA98, Method: PREINCUBATION) “inactive; negative”; under setting [4], “inactive; negative”; (Test System: AMES SALMONELLA TYPHIMURIUM, Strain/Indicator: TA100, Method: PREINCUBATION) “inactive; negative”; under setting [7], “inactive; negative”; (Test System: AMES SALMONELLA TYPHIMURIUM, Strain/Indicator: TA1535, Method: PREINCUBATION) “inactive; negative”. Also, the mutagenic call runs as follows: under setting [8], “inactive; negative”; (Test System: AMES SALMONELLA TYPHIMURIUM, Strain/Indicator: TA1537, Method: PREINCUBATION) “inactive; negative”; (Test System: AMES SALMONELLA TYPHIMURIUM, Strain/Indicator: TA1538, Metabolic Activation: NONE, Method: PREINCUBATION) “inactive; negative”; (Test System: AMES SALMONELLA TYPHIMURIUM, Strain/Indicator: TA1538, Method: PREINCUBATION) “inactive; negative”.
